Reference: US9133141B2, “Cysteine and cystine bioisosteres to treat schizophrenia and reduce drug cravings” (Marquette University, priority 2008, dated 2015)

Experiments:
rats = assay: Prepulse inhibition of acoustic startle, phencyclidine-induced sensorimotor gating deficit; assay type: in vivo, rat; details: for inhibition of startle response when preceded by pre-pulse (sensorimotor gating): rats pretreated 60 min, PCP 1.25 mg/kg SC, FIG. 7
Excerpt: Sensorimotor gating, a process compromised in schizophrenic patients, is often measured using prepulse inhibition whereby a mild auditory stimulus (prepulse, 2-15 db above background) precedes (100 ms) a startle-eliciting auditory stimulus (50 dB above background). Intact sensorimotor gating will result in suppression of the startle reflex when preceded by the prepulse. Since improvement in prepulse inhibition tracks improvement in symptoms that are largely insensitive to current treatments, this paradigm has become one of the most commonly used screening paradigms. FIG. 5 illustrates the capacity of PCP to disrupt prepulse inhibition, rendering the prepulse ineffective in suppressing the startle reflex. PCP is commonly used to disrupt prepulse inhibition because this abnormality, in addition to negative and cognitive symptoms, are insensitive to 1st generation antipsychotics thereby providing predictive validity.
FIG. 7 is a bar graph illustrating inhibition of a startle response in response to a load stimulus (pulse) when preceded by a pre-pulse stimulus (2-15 db above background). Prepulse inhibition is a commonly used paradigm to screen antipsychotic agents for use in treating schizophrenia. The pre-pulse stimulus presented at 15 dB above background reduced the startle response in saline controls (Sal; N=54) by >60% relative to the response elicited following exposure to the pulse only. […] This reflects sensorimotor gating deficits common to patients afflicted with schizophrenia.
In an exemplary experiment, rats are placed on a platform in a sound attenuating chamber (10.875″×14″×19.5″, Hamilton Kinder, CA) that rests on a motion sensing plate. During all sessions, background noise is held constant at 60 dB. A matching session is conducted to determine the magnitude of the average startle response for each rat. This session consists of a five minute habituation period followed by twenty trials.
Seventeen of these trials involve the presentation of a single auditory stimulus (pulse stimulus; 50 dB above the background noise), and in three of these trials, a pre-pulse stimulus (12 dB above background) is presented 100 ms before the pulse auditory stimulus.
Rats are then assigned to various treatment groups so that the magnitude of the startle response is equivalent across all groups. Two days later, a testing session is conducted to assess sensorimotor gating.
The testing session consists of a five minute habituation period, after which rats received 58 discrete trials: 26 trials during which the pulse stimulus (50 dB above background) was presented alone, eight trials each in which the pulse stimulus was preceded by a pre-pulse stimulus (5, 10, or 15 dB above background), and eight background trials with no pulse (no stimulus; background noise only).
The first six pulse alone trials are not included in the average startle stimulus, to achieve a relatively stable level of startle reactivity. The percent of pre-pulse inhibition is determined as 100−(average pre-pulse startle response/average startle stimulus alone)*100.

[1] = clinical trials; cited from earlier work
cocaine abusers = cocaine abusers receiving NAC; cited from earlier work
rodents = details: cited from earlier work
[2] = in vivo; cited from earlier work
human subjects = details: cited from earlier work
[3] = N=8/group, versus PCP alone and/or N-acetylcysteine 30 mg/kg, Fisher LSD p<0.05

Molecule: Cc1noc(C(CSSCC(NC(=O)OC(C)(C)C)c2nc(C)no2)NC(=O)OC(C)(C)C)n1 [Compound 23, tert-Butyl (1R,1′R)-2,2′-disulfanediylbis(1-(3-methyl-1,2,4-oxadiazol-5-yl)ethane-2,1-diyl)dicarbamate]
- inhibition of startle response when preceded by pre-pulse (sensorimotor gating) (rats; [3]): significant difference

Molecule: CC(C)c1noc([C@@H](N)CSSC[C@H](N)c2nc(C(C)C)no2)n1 [Compound 25, (1R,1′R)-2,2′-Disulfanediylbis(1-(3-isopropyl-1,2,4-oxadiazol-5-yl)ethanamine)]
- inhibition of startle response when preceded by pre-pulse (sensorimotor gating) (rats; [3]): significant difference

Molecule: CC(=O)N[C@@H](CS)C(=O)O [N-acetyl cysteine, N-acetylcysteine]
- antipsychotic efficacy [1]: clinical trials establishing the antipsychotic efficacy
- cocaine use and craving (cocaine abusers): reduction in cocaine use and craving
- blocking compulsive drug-seeking (rodents): effective in blocking compulsive drug-seeking
- phencyclidine-induced deficits in sensorimotor gating (rats; direct delivery into the brain (prefrontal cortex), FIG. 6): reverses phencyclidine-induced deficits in sensorimotor gating
- inhibition of startle response when preceded by pre-pulse (sensorimotor gating) (rats; 30 mg/kg po): failed to exhibit sensorimotor gating
- first-pass metabolism [2]: extensive first-pass metabolism
- passive transport across the blood-brain barrier [2]: limited passive transport
- safety/tolerability profile (human subjects): favorable safety/tolerability profile

Molecule: c1ccc(C2(N3CCCCC3)CCCCC2)cc1 [phencyclidine]
- reduction in the startle response elicited by the pulse when preceded by the pre-pulse (rats; rats, phencyclidine only 1.25 mg/kg SC, N=50, regardless of pre-pulse intensity): failed to exhibit a reduction in the response elicited by the pulse

Molecule: tert-Butyl (1R,1′R)-2,2′-disulfanediylbis(1-(3-isopropyl-1,2,4-oxadiazol-5-yl)ethane-2,1-diyl)dicarbamate [Compound 22]
- inhibition of startle response when preceded by pre-pulse (sensorimotor gating) (rats; [3]): significant difference
